Experimental data from patent US9226924B2, “Methods of treating or preventing neuropathic pain” (Toray Industries, Inc., priority 2010, dated 2016).

Legend:
[1] = system: male ddY mice; assay: mouse wheel running test (motor inhibitory effect)
Procedure: 8 male ddY mice of 5 weeks old were used as one experimental group for evaluation. The test compound, grouping of mice, vehicle used and administration method were the same as in Example 1.
Mice were placed in a running wheel apparatus (NATSUME SEISAKUSHO) 0.5 hour after administration of the test compound, and the number of revolutions of the running wheel was counted for a period of 1 hour immediately thereafter to evaluate a motor inhibitory effect.
In the same manner as in Example 2, motor inhibitory effects of oral administration of 30 and 100 mg/kg pregabalin were evaluated.
(§1) The symbol * in the figure indicates a significant difference (*p<0.025) from the group treated with vehicle.

[2] = system: mouse models of neuropathic pain (Seltzer's method, sciatic nerve ligation); assay: von Frey test in mouse Seltzer model of neuropathic pain; assay type: in vivo; details: oral
Procedure: 7 to 8 male ICR mice of 5 weeks old were used as one experimental group for evaluation. Mouse models of neuropathic pain were prepared according to Seltzer's method (Seltzer et al., Pain, 1990, vol. 43, p. 205; Malmberg et al., Pain, 1998, vol. 76, p. 215). That is, the sciatic nerve at the femoral region of the right hindlimb of each mouse was exposed under anesthesia, and the sciatic nerve was triply ligated tightly with silk suture of 8-0 (NATSUME SEISAKUSHO) under microscope so that only half thickness of the nerve was trapped in the ligature.
Seven days after the above-described sciatic nerve ligation, using 0.5% methylcellulose as a vehicle, mice of each group received administration of vehicle, administration of a suspension of pregabalin (3 mg/kg) alone, administration of a suspension of Compound 3 (0.3 mg/kg) alone, or administration (combined administration) of a mixed suspension of pregabalin and Compound 3 (3 mg/kg and 0.3 mg/kg, respectively).
Evaluation of neuropathic pain (hereinafter “von Frey test”) was carried out as follows. Mouse models of neuropathic pain were conditioned for at least 1 hour in an acryl cage for measurement (NATSUME SEISAKUSHO) placed on a wire net. Thereafter, using a filament (North Coast Medical. Inc.) which exerted a pressure of 0.16 g, the mice were subjected to mechanical tactile stimulus by applying the filament to the plantar surface of both hindpaws 3 times, each for 3 seconds, with an interval of 3 seconds.
Seven days after sciatic nerve ligation, a von Frey test was carried out before administration of the test compound, 1 hour after administration, 2 hours after administration, and 3 hours after administration. Change in the total scores from before to after administration of the test compound (hereinafter “ΔvF test score”) was calculated by subtracting the total score obtained at each time point after administration of the test compound from the total score obtained before administration of the test compound, which was used as an indicator of analgesic effect.
That is, individual ΔvF test scores of the mice in the group treated with pregabalin alone and the mice in the group treated with Compound 3 alone were sorted in ascending order, respectively, and ΔvF test scores of the two groups at the same rank were added, thereby obtaining a theoretical total value.
The symbol # in the figures indicates a significant difference (###p<0.001) from the group treated with vehicle. […] The symbol * in the figures indicates a significant difference (*p<0.05, **p<0.01) from the theoretical total value.
In the same manner as in Example 1, effects of oral administration of 1, 3, 10 and 30 mg/kg pregabalin alone were evaluated 1 hour after administration in mouse models of neuropathic pain.
as §1

SMILES: CC(C)C[C@H](CN)CC(=O)O [Pregabalin, S-(+)-4-amino-3-(2-methylpropyl) butanoic acid]
- motor inhibitory effect (number of revolutions of running wheel) ([1]; 3 mg/kg pregabalin alone, oral, 0.5 to 1.5 hours after administration): No statistically-significant motor inhibitory effect was found
- motor inhibitory effect (number of revolutions of running wheel) ([1]; 30 mg/kg pregabalin alone, oral (Comparative Example 2), *p<0.025 vs vehicle): statistically significantly reduced the number of revolutions
- motor inhibitory effect (number of revolutions of running wheel) ([1]; 100 mg/kg pregabalin alone, oral (Comparative Example 2), *p<0.025 vs vehicle): statistically significantly reduced the number of revolutions
- analgesic effect (ΔvF test score) ([2]; 1 mg/kg pregabalin alone, 1 hour after administration (Comparative Example 1)): No analgesic effect was observed
- analgesic effect (ΔvF test score) ([2]; 3 mg/kg pregabalin alone, 1 hour after administration (Comparative Example 1)): No analgesic effect was observed
- analgesic effect (ΔvF test score) ([2]; 3 mg/kg pregabalin alone, 1 hour, 2 hours and 3 hours after administration, male ICR mice): an analgesic effect was not observed
- analgesic effect (ΔvF test score) ([2]; 10 mg/kg pregabalin alone, 1 hour after administration (Comparative Example 1), *p<0.025 vs vehicle): a statistically-significant analgesic effect was observed
- analgesic effect relative to combined administration of 3 mg/kg pregabalin and 0.3 mg/kg Compound 3 ([2]; 30 mg/kg pregabalin alone, 1 hour after administration): about the same level
- analgesic effect (ΔvF test score) ([2]; 30 mg/kg pregabalin alone, 1 hour after administration (Comparative Example 1), *p<0.025 vs vehicle): a statistically-significant analgesic effect was observed

SMILES: COc1ccc(-n2nc(C3(O)CCC(O)CC3)cc2-c2ccc(C)cc2)cc1 (stereo not drawn) [Compound 3, 1-(1-(4-methoxyphenyl)-5-(p-tolyl)-1H-pyrazol-3-yl)cyclohex-an-cis-1,4-diol]
- motor inhibitory effect (number of revolutions of running wheel) ([1]; 0.3 mg/kg Compound 3 alone, oral, 0.5 to 1.5 hours after administration): No statistically-significant motor inhibitory effect was found
- analgesic effect (ΔvF test score) ([2]; 0.3 mg/kg Compound 3 alone, 1 hour, 2 hours and 3 hours after administration, male ICR mice): an analgesic effect was not observed
